Results published in ChEMBL document CHEMBL1201862, “PubChem BioAssay data set” (2004).
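Briefly, cells in 96-well plates were exposed to five compound concentrations for 48 h, and endpoints were estimated by linear interpolation. GI50 is the concentration that inhibits growth by half.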 Active and inactive are the calls of the source. No stated cut-off is given here; in the data, active = GI50 up to about 1.1 µM and inactive = higher.

Columns and labels:
Assay in all cases: NCI tumour cell line growth inhibition, 48 h
HCT-116 = test system: HCT-116
HL-60 = test system: HL-60
IGROV-1 = test system: IGROV-1
K562 = test system: K562
MDA-MB-231 = test system: MDA-MB-231
NCI-H460 = test system: NCI-H460
NCI/ADR-RES = test system: NCI/ADR-RES
OVCAR-3 = test system: OVCAR-3
OVCAR-8 = test system: OVCAR-8
SF-295 = test system: SF-295
SK-MEL-28 = test system: SK-MEL-28
SK-MEL-5 = test system: SK-MEL-5
SNB-75 = test system: SNB-75
SR = test system: SR
SW-620 = test system: SW-620
TK-10 = test system: TK-10
HOP-62 = test system: HOP-62
OVCAR-4 = test system: OVCAR-4
T47D = test system: T47D
MCF7 = test system: MCF7

## O=Cc1c(C(=O)O)[nH]c(=O)[nH]c1=O
HCT-116
  GI50: > 100 µM (inactive)
HL-60
  GI50: > 100 µM (inactive)
IGROV-1
  GI50: > 100 µM (inactive)
K562
  GI50: > 100 µM (inactive)
MDA-MB-231
  GI50: > 100 µM (inactive)
NCI-H460
  GI50: > 100 µM (inactive)
NCI/ADR-RES
  GI50: > 100 µM (inactive)
OVCAR-3
  GI50: > 100 µM (inactive)
OVCAR-8
  GI50: > 100 µM (inactive)
SF-295
  GI50: > 100 µM (inactive)
SK-MEL-28
  GI50: > 100 µM (inactive)
SK-MEL-5
  GI50: 98.6 µM (inactive)
SNB-75
  GI50: > 100 µM (inactive)
SR
  GI50: > 10 µM (inactive)
SW-620
  GI50: > 100 µM (inactive)
TK-10
  GI50: > 100 µM (inactive)

## CC1(C)CC2(C)CC1CC2(O)c1ccccc1 (configuration not stated)
HCT-116
  GI50: > 100 µM (inactive)
HL-60
  GI50: > 100 µM (inactive)
HOP-62
  GI50: > 100 µM (inactive)
IGROV-1
  GI50: > 100 µM (inactive)
K562
  GI50: > 100 µM (inactive)
MDA-MB-231
  GI50: > 100 µM (inactive)
NCI-H460
  GI50: > 100 µM (inactive)
OVCAR-3
  GI50: > 100 µM (inactive)
OVCAR-4
  GI50: > 100 µM (inactive)
OVCAR-8
  GI50: > 100 µM (inactive)
SF-295
  GI50: > 100 µM (inactive)
SK-MEL-28
  GI50: > 100 µM (inactive)
SK-MEL-5
  GI50: > 100 µM (inactive)
SNB-75
  GI50: > 100 µM (inactive)
SR
  GI50: > 100 µM (inactive)
SW-620
  GI50: > 100 µM (inactive)
T47D
  GI50: > 100 µM (inactive)
TK-10
  GI50: > 100 µM (inactive)

## Cc1ccc(NC(=O)CCC(=O)C2Cc3ccccc3C2=O)cc1C (configuration not stated)
HCT-116
  GI50: > 100 µM (inactive)
HL-60
  GI50: > 100 µM (inactive)
HOP-62
  GI50: > 100 µM (inactive)
IGROV-1
  GI50: > 100 µM (inactive)
K562
  GI50: > 100 µM (inactive)
NCI-H460
  GI50: > 100 µM (inactive)
OVCAR-3
  GI50: > 100 µM (inactive)
OVCAR-4
  GI50: > 100 µM (inactive)
OVCAR-8
  GI50: > 100 µM (inactive)
SF-295
  GI50: > 100 µM (inactive)
SK-MEL-28
  GI50: > 100 µM (inactive)
SK-MEL-5
  GI50: > 100 µM (inactive)
SNB-75
  GI50: > 100 µM (inactive)
SR
  GI50: > 100 µM (inactive)
SW-620
  GI50: > 100 µM (inactive)
TK-10
  GI50: > 100 µM (inactive)

## O=C1C(c2c(O)[nH]c3ccc(F)cc23)=Nc2ccccc21
HCT-116
  GI50: > 100 µM (inactive)
HOP-62
  GI50: 46.2 µM (inactive)
IGROV-1
  GI50: 1.03 µM (active)
K562
  GI50: 44.2 µM (inactive)
MCF7
  GI50: 6.56 µM (inactive)
MDA-MB-231
  GI50: 12.9 µM (inactive)
NCI-H460
  GI50: > 100 µM (inactive)
NCI/ADR-RES
  GI50: > 100 µM (inactive)
OVCAR-3
  GI50: > 100 µM (inactive)
OVCAR-8
  GI50: 8.13 µM (inactive)
SF-295
  GI50: 27.4 µM (inactive)
SK-MEL-28
  GI50: > 100 µM (inactive)
SK-MEL-5
  GI50: > 100 µM (inactive)
SNB-75
  GI50: 3.21 µM (inactive)
SR
  GI50: > 100 µM (inactive)
SW-620
  GI50: > 100 µM (inactive)
TK-10
  GI50: 22.1 µM (inactive)

## CC(C)(CN1C(=O)C(Cl)=C(Cl)C1=O)CN1C(=O)C(Cl)=C(Cl)C1=O
HCT-116
  GI50: 11.5 µM (inactive)
HL-60
  GI50: 0.552 µM (active)
HOP-62
  GI50: 22.1 µM (inactive)
IGROV-1
  GI50: 18.9 µM (inactive)
K562
  GI50: 1.64 µM (inactive)
NCI-H460
  GI50: 35 µM (inactive)
OVCAR-3
  GI50: 8.02 µM (inactive)
OVCAR-4
  GI50: 21.7 µM (inactive)
OVCAR-8
  GI50: 6.34 µM (inactive)
SF-295
  GI50: 24.3 µM (inactive)
SK-MEL-28
  GI50: 7.48 µM (inactive)
SK-MEL-5
  GI50: 22.1 µM (inactive)
SNB-75
  GI50: 22.2 µM (inactive)
SR
  GI50: 2.58 µM (inactive)
SW-620
  GI50: 5 µM (inactive)
TK-10
  GI50: 9.02 µM (inactive)

## N[C@@H]1CCN(c2c(F)cc3c(=O)c(C(=O)O)cn4c3c2Oc2c-4ccc3c2ccc2ccccc23)C1
HCT-116
  GI50: 1.08 µM (active)
HL-60
  GI50: 5.16 µM (inactive)
HOP-62
  GI50: 1.38 µM (inactive)
IGROV-1
  GI50: 0.413 µM (active)
K562
  GI50: 3.1 µM (inactive)
MCF7
  GI50: 0.667 µM (active)
NCI-H460
  GI50: 0.396 µM (active)
NCI/ADR-RES
  GI50: 23.2 µM (inactive)
OVCAR-3
  GI50: 21.5 µM (inactive)
OVCAR-4
  GI50: 1.17 µM (inactive)
OVCAR-8
  GI50: 1.38 µM (inactive)
SF-295
  GI50: 1.92 µM (inactive)
SK-MEL-28
  GI50: > 100 µM (inactive)
SK-MEL-5
  GI50: 1.44 µM (inactive)
SR
  GI50: 0.225 µM (active)
SW-620
  GI50: 0.671 µM (active)
TK-10
  GI50: 2.38 µM (inactive)

## O=c1c(Cl)c(Cl)cnn1CCCl
HCT-116
  GI50: 5.48 µM (inactive)
HL-60
  GI50: 2.19 µM (inactive)
HOP-62
  GI50: 17.3 µM (inactive)
IGROV-1
  GI50: 1.95 µM (inactive)
K562
  GI50: 2.06 µM (inactive)
NCI-H460
  GI50: 8.13 µM (inactive)
OVCAR-3
  GI50: 3.47 µM (inactive)
OVCAR-4
  GI50: 1.57 µM (inactive)
OVCAR-8
  GI50: 3.44 µM (inactive)
SF-295
  GI50: 16 µM (inactive)
SK-MEL-28
  GI50: 2.08 µM (inactive)
SK-MEL-5
  GI50: 3.4 µM (inactive)
SNB-75
  GI50: 11.1 µM (inactive)
SW-620
  GI50: 1.9 µM (inactive)
T47D
  GI50: 3.34 µM (inactive)
TK-10
  GI50: 15.9 µM (inactive)

## COc1ccc2c3c([nH]c2c1CC=C(C)C)C(=O)C=C(C)C3=O
HCT-116
  GI50: 16.2 µM (inactive)
HL-60
  GI50: > 25 µM (inactive)
HOP-62
  GI50: > 25 µM (inactive)
IGROV-1
  GI50: > 25 µM (inactive)
K562
  GI50: > 25 µM (inactive)
NCI-H460
  GI50: > 25 µM (inactive)
OVCAR-3
  GI50: > 25 µM (inactive)
OVCAR-4
  GI50: 20.4 µM (inactive)
OVCAR-8
  GI50: > 25 µM (inactive)
SF-295
  GI50: > 25 µM (inactive)
SK-MEL-28
  GI50: > 25 µM (inactive)
SK-MEL-5
  GI50: > 25 µM (inactive)
SNB-75
  GI50: 14.4 µM (inactive)
SR
  GI50: 24.5 µM (inactive)
SW-620
  GI50: > 25 µM (inactive)
TK-10
  GI50: > 25 µM (inactive)
